Measured values taken from paper PMC3476947 (Journal of medicinal chemistry, 2012).

What was measured:
[1] = tested on: MBHA DNA substrate (25 base-pair); test: Fluorescent intercalator displacement; format: binding; details: 1.5 μM compound, FID counterscreen
[2] = biological target: T1, HCV NS3 helicase (NS3h_1b(con1)) (Hepatitis C virus genotype 1b, UniProt Q9WMX2); test: biochemical
[3] = biological target: T1, HCV NS3 helicase (NS3h_1b(con1)); test: MBHA with RNA substrate; format: biochemical; details: data not shown

T1 sequence (Q9WMX2 1192-1657): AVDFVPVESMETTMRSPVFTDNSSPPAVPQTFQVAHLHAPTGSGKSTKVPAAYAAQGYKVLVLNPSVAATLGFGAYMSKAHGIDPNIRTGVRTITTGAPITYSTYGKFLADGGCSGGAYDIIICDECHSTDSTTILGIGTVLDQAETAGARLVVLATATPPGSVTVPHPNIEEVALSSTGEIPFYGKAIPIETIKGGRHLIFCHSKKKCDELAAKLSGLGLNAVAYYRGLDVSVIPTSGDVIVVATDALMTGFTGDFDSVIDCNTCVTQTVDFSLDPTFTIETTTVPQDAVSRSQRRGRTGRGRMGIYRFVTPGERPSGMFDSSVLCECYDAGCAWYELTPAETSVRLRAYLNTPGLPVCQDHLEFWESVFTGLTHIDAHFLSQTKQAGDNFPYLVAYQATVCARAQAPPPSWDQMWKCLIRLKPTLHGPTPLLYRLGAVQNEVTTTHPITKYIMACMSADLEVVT

| SMILES | decrease of fluorescence of DNA-bound ethidium bromide [1] | IC50 [2] | effect on HCV helicase-catalyzed RNA unwinding [3] | effect on HCV helicase-catalyzed DNA unwinding ([2]; MBHA, up to 100 μM) |
| --- | --- | --- | --- | --- |
| [Cl][Cd][Cl] [CdCl2] | less than 8% | – | – | – |
| CO[C@@H]1[C@H](O)C[C@@H](O[C@@H]2C[C@H](Oc3cc4cc5c(c(O)c4c(O)c3C)C(=O)[C@@H](O[C@H]3C[C@@H](O[C@H]4C[C@@H](O[C@H]6C[C@](C)(O)[C@@H](OC(C)=O)[C@H](C)O6)[C@H](O)[C@@H](C)O4)[C@H](O)[C@@H](C)O3)[C@H]([C@H](OC)C(=O)[C@@H](O)[C@@H](C)O)C5)O[C@H](C)[C@@H]2OC(C)=O)O[C@@H]1C [Chromomycin A3] | – | 150 ± 30 nM | no effect | – |
| Cc1c2ccncc2c(C)c2c1[nH]c1ccccc12 [ellipticine] | less than 8% | – | – | – |
| Cc1ccc2c(c1)sc(-c1ccc(N(C)C)cc1)[n+]2C.[Cl-] [thioflavine T] | – | – | no effect | no effect |
